What was measured:
PtmO5 [1] = molecular target: T1, PtmO5 (Streptomyces platensis, UniProt D8L2V0); assay: type I difference spectra titration, nonlinear regression of A390-A422; format: binding; details: 0-5 μM ligand; type I shift 422 to 390 nm; heme site
T1 sequence (D8L2V0 1-430): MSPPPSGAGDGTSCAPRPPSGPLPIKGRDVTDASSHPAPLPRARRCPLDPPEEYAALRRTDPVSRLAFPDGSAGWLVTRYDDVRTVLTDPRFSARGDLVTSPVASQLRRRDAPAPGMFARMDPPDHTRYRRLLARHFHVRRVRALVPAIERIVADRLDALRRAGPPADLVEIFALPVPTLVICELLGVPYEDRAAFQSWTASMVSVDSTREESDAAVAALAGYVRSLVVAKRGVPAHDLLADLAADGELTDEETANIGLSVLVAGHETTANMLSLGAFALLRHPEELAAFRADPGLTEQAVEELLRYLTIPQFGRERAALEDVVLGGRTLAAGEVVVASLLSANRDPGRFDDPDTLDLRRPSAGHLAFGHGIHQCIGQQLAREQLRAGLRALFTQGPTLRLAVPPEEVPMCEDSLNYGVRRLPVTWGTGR

PtmO5 [2] = molecular target: T1, PtmO5; assay: type I binding spectra; details: heme site, poor solubility of 4

Kd (PtmO5 [1])	Kd (PtmO5 [2])	SMILES
860 ± 70 nM		C[C@@]12CCC[C@@](C)(C(=O)O)[C@H]1CC[C@@]13C[C@@H](CC[C@H]12)[C@](C)(O)C3 [compound 1, (16R)-hydroxy-ent-kauran-19-oic acid]
	750 ± 190 nM	C=C1C[C@@]23CC[C@H]4[C@@](C)(CCC[C@@]4(C)C(=O)O)[C@@H]2CC[C@@H]1C3 [compound 4, ent-kaur-16-en-19-oic acid]

Reference: paper PMC6211292 (Journal of the American Chemical Society, 2018)
